Consider 2 molecules from patent US12441765B2, “Peptides and medical uses thereof” (Anbition S.R.L., priority 2018, dated 2025).

In one series the target is VEGFR1 (Homo sapiens, UniProt P17948). The following applies: cited from earlier work.
A further series concerns the target T1, PIGF/VEGFR-1 interaction (Homo sapiens, UniProt P17948).
T1 construct: the form consisting of the seven extracellular domains of the receptor fused to the Fc domain of human lgG; purchased R&D Systems 321-FL (receptor); 264-PG (PlGF)
The series can be described thus: ELISA competition assay of PIGF binding to VEGFR-1. The following applies: for binding % (PIGF/VEGFR-1 interaction): residual binding. As to the method:
The assay to test the binding of PIGF or VEGF-A with the VEGFR-1 receptor is based on the ELISA method [Ponticelli et al., JBC. 2008 Dec. 5; 283 (49): 34250-9] and was performed using reagents acquired from R&D Systems.
The human recombinant receptor VEGFR-1, in particular the form consisting of the seven extracellular domains of the receptor fused to the Fc domain of human lgG (R&D Systems, cat N° 321-FL), was made to adhere in the wells of 96-well microplates at a concentration of 0.5 μg/ml in PBS pH 7.5 (100 μl/well) for 16 hours at room temperature (RT).
After the non-specific binding sites had been blocked in the wells using a buffer solution consisting of PBS pH 7.5 containing 3% BSA, 5 ng/ml of recombinant PIGF (R&D Systems, cat N° 264-PG), or 5 ng/ml of recombinant VEGF-A (R&D Systems, cat N° 293-VE) of human origin in PBET (PBS pH 7.5, BSA 0.1%, EDTA 5 mM, Tween 0.004%) were added to the wells with the adhered receptor.
Simultaneously with the ligands, i.e., PIGF or VEGF-A, graduated doses of iVR1, iVR1-Cys or a control peptide (PC-[(S-Ser)-(S-Ala)-(S-Cha) tripeptide with a tetrameric structure identical to the structure of the iVR1 peptides]) were added at concentrations comprised between 780 and 50000 nM. The binding reaction was conducted for one hour at 37° C., followed by one hour at room temperature.
(§1) At the end of the binding and/or competition step, anti-human-PIGF biotinylated polyclonal antibodies (R&D Systems, cat No. BAF264) or anti-human-VEGF-A (R&D Systems, cat No. BAF293) were added to the wells at the concentration of 300 ng/ml in PBET. After one hour of incubation at 37° C. followed by one hour at room temperature, an HRP-conjugated avidin-streptavidin system (Vectastain elite ABC kit) and a substrate for HRP (o-phenylenediamine-Sigma, cat No. P1526) were added to the wells. Quantization was performed by determining the absorbance at 490 nm.
Any inhibitory activity of the peptides was expressed in terms of % of residual binding, comparing the data obtained for the binding of PIGF or VEGF-A to the receptors in the presence of the tetrameric peptides with those in the absence of the same. iVR1 represented the positive control of the inhibition of the PIGF/VEGFR-1 or VEGF-A/VEGFR-1 interaction.
(In an ELISA, binding on a coated surface is turned into a signal by an enzyme label.)

Series [1] has as its target T2, VEGF-A/VEGFR-1 interaction (Homo sapiens, UniProt P17948).
T2 construct: the form consisting of the seven extracellular domains of the receptor fused to the Fc domain of human lgG; purchased R&D Systems 321-FL (receptor); 293-VE (VEGF-A)
Kind of series: ELISA competition assay of VEGF-A binding to VEGFR-1. As to conditions: for binding % (VEGF-A/VEGFR-1 interaction): residual binding. The procedure: as §1, with “The binding reaction was conducted for one hour at 37° C., followed by one hour at room temperature. At” for “At”, “nm. Any inhibitory activity of the peptides was expressed in terms of % of residual binding, comparing the data obtained for the binding of PIGF or VEGF-A to the receptors in the presence of the tetrameric peptides with those in the absence of the same. iVR1 represented the positive control of the inhibition of the PIGF/VEGFR-1 or VEGF-A/VEGFR-1 interaction.” for “nm.”

The nature of series [2]: Serum protease stability in 10% fetal calf serum (RP-HPLC). Type of series: in vitro ADME. As to conditions: 10% FCS. The procedure: The stability of the peptide iVR1-Cys in 10% serum (fetal calf serum, FCS) in a 50 mM phosphate buffer solution, pH 7.3, at 168 h was determined as described by Ponticelli et al., relying on a method based on RP-HPLC chromatography, described therein [Ponticelli et al., J Biol Chem. 2008 Dec. 5; 283 (49): 34250-9].
The reference curve was constructed by dissolving the compound in DMSO at increasing concentrations of between 0.1 μmol/L and 1000 μmol/L in order to have complete dissolution. The concentration of the molecule left in contact with 10% FCS at the initial concentration of 10 μmol/L was then determined by drawing 3 aliquots at time t=0, then every hour in the first 12 hours and then at 24, 72, 120, and 168 h. The aliquots were diluted 1:1 with acetic acid 0.1 M in order to detach any peptide bound to the albumin, centrifuged to remove any precipitated materials and analyzed by RP-HPLC under the conditions reported in Ponticelli et al. The amount of residual peptide detected in the aliquots, expressed as a percentage relative to the initial amount, was plotted as a function of time. The results are shown in Table VII as the mean of the three determinations±the standard deviation (SD).

The structures appear in SMILES notation. Read-outs that look alike come from different tables or passages of the source.

T1 sequence (P17948 27-758 limits assumed): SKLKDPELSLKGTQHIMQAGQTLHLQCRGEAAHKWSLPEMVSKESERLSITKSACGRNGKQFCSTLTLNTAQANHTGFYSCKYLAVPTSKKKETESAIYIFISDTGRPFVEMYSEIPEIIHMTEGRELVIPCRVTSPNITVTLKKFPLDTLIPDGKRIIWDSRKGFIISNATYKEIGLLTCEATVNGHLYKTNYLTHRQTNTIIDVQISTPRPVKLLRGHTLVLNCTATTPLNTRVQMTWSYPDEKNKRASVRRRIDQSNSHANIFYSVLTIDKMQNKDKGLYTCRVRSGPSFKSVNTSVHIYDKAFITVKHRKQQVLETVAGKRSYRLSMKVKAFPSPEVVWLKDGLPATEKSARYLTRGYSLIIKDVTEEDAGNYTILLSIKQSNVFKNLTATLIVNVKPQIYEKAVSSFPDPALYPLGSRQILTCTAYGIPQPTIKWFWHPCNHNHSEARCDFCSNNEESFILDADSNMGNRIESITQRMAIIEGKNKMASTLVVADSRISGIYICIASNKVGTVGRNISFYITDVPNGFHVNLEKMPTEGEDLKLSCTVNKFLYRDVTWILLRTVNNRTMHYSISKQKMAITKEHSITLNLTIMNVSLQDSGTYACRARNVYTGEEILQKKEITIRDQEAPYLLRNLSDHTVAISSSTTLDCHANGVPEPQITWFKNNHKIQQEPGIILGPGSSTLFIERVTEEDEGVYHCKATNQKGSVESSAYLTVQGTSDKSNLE
T2 sequence (P17948 27-758 limits assumed): as above
VEGFR1, sequence (P17948 27-1338): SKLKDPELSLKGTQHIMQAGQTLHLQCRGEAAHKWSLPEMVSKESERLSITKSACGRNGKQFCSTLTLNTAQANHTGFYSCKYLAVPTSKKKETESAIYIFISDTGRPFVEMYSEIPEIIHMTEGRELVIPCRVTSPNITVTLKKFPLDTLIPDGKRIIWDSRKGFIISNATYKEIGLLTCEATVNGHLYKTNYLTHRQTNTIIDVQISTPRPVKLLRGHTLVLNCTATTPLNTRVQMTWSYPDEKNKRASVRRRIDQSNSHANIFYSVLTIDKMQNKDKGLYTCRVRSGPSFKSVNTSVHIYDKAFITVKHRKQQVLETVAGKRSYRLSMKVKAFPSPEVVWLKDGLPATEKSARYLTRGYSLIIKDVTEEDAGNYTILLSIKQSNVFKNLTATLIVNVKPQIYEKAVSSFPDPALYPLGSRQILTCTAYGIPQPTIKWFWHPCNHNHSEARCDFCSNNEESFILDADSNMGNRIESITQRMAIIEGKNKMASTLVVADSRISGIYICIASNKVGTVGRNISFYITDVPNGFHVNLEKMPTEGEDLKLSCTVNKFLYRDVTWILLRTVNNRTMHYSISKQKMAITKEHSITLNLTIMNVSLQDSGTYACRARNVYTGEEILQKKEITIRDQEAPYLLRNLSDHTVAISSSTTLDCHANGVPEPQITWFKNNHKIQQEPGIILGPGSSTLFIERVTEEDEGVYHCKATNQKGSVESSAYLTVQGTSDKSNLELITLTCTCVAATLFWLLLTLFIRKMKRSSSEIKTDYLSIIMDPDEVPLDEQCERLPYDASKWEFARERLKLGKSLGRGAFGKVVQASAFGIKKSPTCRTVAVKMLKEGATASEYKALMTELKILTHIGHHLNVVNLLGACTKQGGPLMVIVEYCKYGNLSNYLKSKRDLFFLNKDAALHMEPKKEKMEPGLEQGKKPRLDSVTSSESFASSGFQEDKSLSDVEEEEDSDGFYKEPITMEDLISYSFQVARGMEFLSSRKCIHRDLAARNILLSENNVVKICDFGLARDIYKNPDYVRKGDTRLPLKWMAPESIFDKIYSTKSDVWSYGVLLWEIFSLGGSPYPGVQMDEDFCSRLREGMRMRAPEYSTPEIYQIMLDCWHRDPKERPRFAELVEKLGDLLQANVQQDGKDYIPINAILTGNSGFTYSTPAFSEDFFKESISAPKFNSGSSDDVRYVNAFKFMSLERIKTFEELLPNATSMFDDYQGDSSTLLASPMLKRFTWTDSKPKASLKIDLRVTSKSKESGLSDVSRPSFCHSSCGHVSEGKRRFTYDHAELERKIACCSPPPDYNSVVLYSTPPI

With `N[C@H](CCC(=O)O)C(=O)N[C@@H](CSCc1ccccc1)C(=O)N[C@@H](CC1CCCCC1)C(=O)NCCCC[C@H](NC(=O)[C@H](CC1CCCCC1)NC(=O)[C@H](CSCc1ccccc1)NC(=O)[C@H](N)CCC(=O)O)C(=O)NCCCC[C@H](NC(=O)[C@H](CCCCNC(=O)[C@H](CC1CCCCC1)NC(=O)[C@H](CSCc1ccccc1)NC(=O)[C@H](N)CCC(=O)O)NC(=O)[C@H](CC1CCCCC1)NC(=O)[C@H](CSCc1ccccc1)NC(=O)[C@H](N)CCC(=O)O)C(=O)NCC(=O)O` [iVR1], the IC50 was approximately 10 µM at VEGFR1 (in vitro, reported by Ponticelli et al., read-out: IC50 of inhibition of the interaction of PIGF, VEGF-A and VEGF-B with VEGFR1); not below 10 µM on VEGFR1 (reported in Ponticelli et al., read-out: affinity towards VEGFR1 (expressed as IC50)); approximately 10 µM at PIGF/VEGFR-1 interaction (read-out: IC50 of inhibition of the interaction of PIGF with VEGFR-1); approximately 10 µM in series [1] (read-out: IC50 for VEGF-A/VEGFR-1 inhibition). The “binding % (PIGF/VEGFR-1 interaction)” value on PIGF/VEGFR-1 interaction (peptide 780 nM) is 99.36%; on PIGF/VEGFR-1 interaction (peptide 1560 nM) it was 101.32%; at PIGF/VEGFR-1 interaction (peptide 3125 nM), 96.10%; on PIGF/VEGFR-1 interaction (peptide 6250 nM) it was 68.49%; on PIGF/VEGFR-1 interaction (peptide 12500 nM), 44.57%; at PIGF/VEGFR-1 interaction (peptide 25000 nM) it was 36.02%. The “binding % (PIGF/VEGFR-1 interaction)” value on PIGF/VEGFR-1 interaction (peptide 50000 nM) turned out to be 26.26%. Besides, the “binding % (VEGF-A/VEGFR-1 interaction)” value is listed as 98.36% in series [1] (peptide 780 nM); 96.21% in series [1] (peptide 1560 nM); 93.93% in series [1] (peptide 3125 nM); 66.00% in series [1] (peptide 6250 nM); 37.02% in series [1] (peptide 12500 nM); 21.45% in series [1] (peptide 25000 nM). Further, in series [1] (peptide 50000 nM), the “binding % (VEGF-A/VEGFR-1 interaction)” value came to 8.60%.

As for `N[C@H](CCC(=O)O)C(=O)N[C@@H](CSCc1ccccc1)C(=O)N[C@@H](CC1CCCCC1)C(=O)NCCCC[C@H](NC(=O)[C@H](CC1CCCCC1)NC(=O)[C@H](CSCc1ccccc1)NC(=O)[C@H](N)CCC(=O)O)C(=O)NCCCC[C@H](NC(=O)[C@H](CCCCNC(=O)[C@H](CC1CCCCC1)NC(=O)[C@H](CSCc1ccccc1)NC(=O)[C@H](N)CCC(=O)O)NC(=O)[C@H](CC1CCCCC1)NC(=O)[C@H](CSCc1ccccc1)NC(=O)[C@H](N)CCC(=O)O)C(=O)N[C@H](CS)C(=O)O` [iVR1-Cys], the “% residual peptide ± SD” value in series [2] (0 h, 50 mM phosphate buffer pH 7.3, initial 10 μmol/L) is given as 101 ± 4%. Moreover, the remaining at 1 h, 10 μmol/L in series [2] (calf (bovine), 10% fetal calf serum, 1 h, pH 7.3, read-out: % residual peptide ± SD) turned out to be 100 ± 11%. In addition, the remaining at 2 h, 10 μmol/L in series [2] (calf (bovine), 10% fetal calf serum, 2 h, pH 7.3, read-out: % residual peptide ± SD) was found to be 99 ± 7%. The remaining at 3 h, 10 μmol/L in series [2] (calf (bovine), 10% fetal calf serum, 3 h, pH 7.3, read-out: % residual peptide ± SD) turned out to be 98 ± 5%. In addition, the remaining at 4 h, 10 μmol/L in series [2] (calf (bovine), 10% fetal calf serum, 4 h, pH 7.3, read-out: % residual peptide ± SD) was found to be 97 ± 4%. Further, the remaining at 5 h, 10 μmol/L in series [2] (calf (bovine), 10% fetal calf serum, 5 h, pH 7.3, read-out: % residual peptide ± SD) is 96 ± 5%. The remaining at 6 h, 10 μmol/L in series [2] (calf (bovine), 10% fetal calf serum, 6 h, pH 7.3, read-out: % residual peptide ± SD) was found to be 99 ± 6%. In series [2] (calf (bovine), 10% fetal calf serum, 7 h, pH 7.3, read-out: % residual peptide ± SD), the remaining at 7 h, 10 μmol/L was found to be 95 ± 8%. In series [2] (calf (bovine), 10% fetal calf serum, 8 h, pH 7.3, read-out: % residual peptide ± SD), the remaining at 8 h, 10 μmol/L was 96 ± 5%. Also, in series [2] (calf (bovine), 10% fetal calf serum, 9 h, pH 7.3, read-out: % residual peptide ± SD), the remaining at 9 h, 10 μmol/L worked out at 95 ± 6%. In series [2] (calf (bovine), 10% fetal calf serum, 10 h, pH 7.3, read-out: % residual peptide ± SD), the remaining at 10 h, 10 μmol/L came out at 94 ± 10%. Moreover, the remaining at 11 h, 10 μmol/L in series [2] (calf (bovine), 10% fetal calf serum, 11 h, pH 7.3, read-out: % residual peptide ± SD) came to 94 ± 8%. In series [2] (calf (bovine), 10% fetal calf serum, 12 h, pH 7.3, read-out: % residual peptide ± SD), the remaining at 12 h, 10 μmol/L was found to be 93 ± 4%. Also, the remaining at 24 h, 10 μmol/L in series [2] (calf (bovine), 10% fetal calf serum, 24 h, pH 7.3, read-out: % residual peptide ± SD) was 93 ± 6%. For the same molecule, the remaining at 72 h, 10 μmol/L in series [2] (calf (bovine), 10% fetal calf serum, 72 h, pH 7.3, read-out: % residual peptide ± SD) stood at 92 ± 7%. Moreover, the remaining at 120 h, 10 μmol/L in series [2] (calf (bovine), 10% fetal calf serum, 120 h, pH 7.3, read-out: % residual peptide ± SD) was 91 ± 5%. Besides, the remaining at 168 h, 10 μmol/L in series [2] (calf (bovine), 10% fetal calf serum, 168 h, pH 7.3, read-out: % residual peptide ± SD) worked out at 92 ± 8%.
